Patent US7709259B2, “Enhancement of mammalian embryo development” (Board of Regents of the University of Texas System, priority 2003, dated 2010)
Entries after “also recorded” stand apart in the source; their conditions may differ.

Columns and labels:
mouse embryos [1] = assay: Complete hatching of cultured two-cell mouse embryos; assay type: cell-based; conditions: for effect on complete hatching: 0.1 μM
Method: Mice were kept under controlled temperature, humidity, and light cycle (12 hour light/dark cycle) conditions with free access to water and food. Three-week old C57B1/6 female mice were purchased from Harlan (Indianapolis, Ind., USA). Eight-week old C3H male mice were purchased initially from Harlan and later from The Jackson Laboratory (Bar Harbor, Me., USA). Superovulation in the female mice was achieved by intraperitoneal injection of pregnant mare serum gonadotropin (5 IU), followed by human chorionic gonadotropin (hCG, 5 IU) 46 hours later. After receiving hCG, each female mouse was paired with one fertile male mouse. Forty-eight hours later, two-cell embryos were harvested from the oviduct into α-MEM media supplemented with 25 mM HEPES and 1% BSA (Irvine Scientific).
Embryos (17-20 per group) were cultured at 37° C. under 5% CO2 in a four-well dish (Nalge Nunc International, Naperville, Ill., USA) containing 600 μl of medium in each well. The HTF and the α-MEM media were used sequentially during the 96-hour period to meet the changing nutritional requirements of the cleaving embryos [Gardner, 1998]. The HTF medium (SAGE Biopharma) was used during the first 48 hours, and the α-MEM medium (Irvine Scientific), with Earle's Salts and 2 mM glutamine, was used during the second 48 hours. The experimental embryos received Iloprost in water and the control embryos received an equal amount of water. […] After 96-hour culture, each embryo was examined for the presence of the zona pellucida. Embryos completely free of the zona pellucida were counted as having completely hatched. The rate of complete hatching was determined by dividing the number of completely hatched embryos by the total number of embryos. Complete hatching of embryos was chosen as an endpoint instead of blastocyst formation or embryo hatching because the latter two markers are not correlated with establishment of a viable pregnancy [Lane, 1997].
Student's t-test or one-way analysis of variance followed by Dunnett test were used where appropriate. A p<0.05 was considered statistically significant. Construction of dose response curves and calculation of ED50 values (with the Hill slope set at 1.0) were completed with the GraphPad Prism® software (GraphPad Prism Software Inc., San Diego, Calif., USA).

[2] = system: intact mouse embryos (blastocysts); assay: Whole embryo radioligand binding assay (3H-Iloprost); conditions: 0.1 μM 3H-Iloprost, with or without 5 μM unlabeled Iloprost, 116 blastocysts
Method: Analysis of the binding of ^3H-Iloprost to blastocysts was performed as previously described [Arbab, 2002] with slight modification. Two hundred thirty-two hatched and hatching blastocysts were washed three times in binding buffer (10 mM MnCl2 in 10 mM HEPES, pH 7.4) and then transferred to 100 μl of binding buffer with or without unlabeled Iloprost (5 μM). The reaction was started by adding an equal amount of binding buffer containing ^3H-Iloprost (200 nM, specific activity 11.0 Ci/mmol, Amersham Biosciences) and incubating for 60 min at room temperature. The reaction was terminated by transferring the blastocysts to 2 ml of ice-cold wash buffer (0.01% BSA in 10 mM HEPES, pH 7.4). The buffer and the blastocysts were filtered through glass fiber filters (Whatman GF/C 2.4 cm) and the filters were washed three times with 2 ml of wash buffer. The filters were dried in an oven before the radioactivity was determined by scintillation counting with 5 ml of scintillation fluid.

mouse embryos [3] = assay: Developmental stage of cultured embryos at the time of transfer; assay type: cell-based
Method: (§1) Mouse embryos were harvested and cultured as described above, and subsequently published by the present inventor (Huang et al., 2003). Briefly, two-cell embryos ([…]) were harvested from super-ovulated, three-week old C57B1/6 female mice 42 hours after hCG injection. The embryos (14 per group) were cultured at 37° C. under 5% CO2 in four-well dish (Nalge Nunc International, Naperville, Ill., USA) each containing 600 μl HTF media (SAGE Biopharma, Bedminster, N.J., USA). The experimental embryos received Iloprost (1 μM, Caymen Chemical, Ann Arbor, Mich., USA) in water and the control embryos, an equal amount of water. In either case, the volume of water was less than 0.1% of the culture media.
(§2) Embryo transfer was performed on 2.5 day of pseudopregnancy under a dissecting microscope (Olympus SZ-PT). Surgical anesthesia was obtained through intraperitoneal injection of ketamine (200 mg/Kg) and xylazine (10 mg/Kg) (both from Burns Vet Supply Inc. TX, USA). Each uterine horn was accessed via a 2-cm flank incision. With the proximal oviduct held by a pair of forceps, an opening was created at the distal end of the uterine horn on the anti-mesenteric side with a 30 gauge needle. The opening permits the entry of transfer pipette which has an inner diameter of 135 μm (MidAtlantic Diagnostics, Inc. NJ, USA). Up to seven embryos in 0.8 μl of transfer media (α MEM with 25 mM HEPES and 1% BSA) were transferred to each horn. After each transfer, contents of the pipette were examined under a stereo microscope to identify retained embryos. The flank incision was closed with 9 mm metallic clips (Clay Adams, Parsippany, N.J., USA). To avoid mixing of control and experimental embryos due to embryo migration from one horn to the other (personal communication with Dr. Andreas Zimmer, University of Bonn, Germany), each gestational carrier received either control or experimental embryos. To maintain consistent transfer techniques, the embryo transfer was performed according to the same protocol and by one individual, who was blinded to the treatment the embryos being placed received. To ensure that both groups benefited equally from the experience gained over the course of the study (˜6 months), the embryos were assigned treatments (control or Iloprost) in blocks of four.

mouse embryos [4] = assay: Implantation rate 72 hours after transfer of cultured embryos to gestational carriers; assay type: in vivo
Method: as §1
The day after the embryo donors received hCG, vaginal smears were obtained from potential gestational carriers (eight week old C3B6F1 female mice) to determine the stage of estrus cycle. […]
Seventy-two hours after embryo transfer, implantation was determined based on a previously described method with some modifications (Paria et al., 1993). […] Discrete blue bands (indicated by *) encircling the uterine horns were counted (FIG. 6A). […] The uterine horns were then opened and the gestation sacs counted (FIG. 6B). The implantation rate was expressed as the number of gestation sacs per embryo transferred. […]

mouse embryos [5] = assay: Live birth rate, implantation rate and weights of pups and placentae 14 days after embryo transfer; assay type: in vivo
Method: as §1
The day after the embryo donors received hCG, vaginal smears were obtained from potential gestational carriers (eight week old C3B6F1 female mice) to determine the stage of estrus cycle. Those in estrus were paired with vasectomized ICR males (Harlan) and checked for vaginal plugs on the following morning. Those with plugs were designated to be 0.5 day pseudopregnant.
as §2
In order to count and weigh the pups accurately, we sacrificed gestational carriers 14 days after embryo transfer (16.5 days of pregnancy or two days before natural birth). After euthanasia, the number of live pups was counted and the weight of individual pup and placenta was determined. All pups were examined for gross anomalies. The number of empty gestation sacs was also counted in order to determine the implantation rate. The live birth rate was expressed as the number of live pups per embryo transferred; the implantation rate was expressed as the number of sacs, with or without live pups, per embryo transferred.
The Fisher's exact test was used to compare the rates; the Student's t-test was used to compare the weights. A p<0.05 was considered as statistically significant. The GraphPad Instat® software (GraphPad Software Inc., San Diego, Calif., USA) was used for statistical analysis.

[6] = system: human embryos (frozen zygotes); assay: Blastocyst formation study with frozen human zygotes; assay type: cell-based; conditions: Frozen Zygote, 0.1 μM
Method: (§3) With the patients' written instructions, 101 frozen zygotes from 14 couples were used for the blastocyst formation study. The zygotes had been frozen during the period of January, 1993 to November, 2003. After overnight culture, only those embryos that had developed to 2-cell stage were used for further study. For each patient, those 2-cell stage embryos were split into a control pool or an experimental pool. All embryos were cultured in Gobal medium (a modified KSOM medium from IVF online) for 5 days with change medium at 2.5 day. The experimental group was supplemented with 0.1 μM of Iloprost (Cayman Chemical, Ann Arbor, Mich.). The control group was supplemented with vehicle (0.000001% DMSO). Chi-Square test were used to compare the number of blastocyst formed. The quality (size, inner cell mass, trophectoderm) of blastocysts was analyzed by non-parametric Wilcoxon Rank Sum Test. The statistical significance was defined at P<0.05. Another 52 donated frozen blastocysts, from 9 couples, were used for short term study. Forty-five thawed blastocysts were recovered. Those blastocysts were immediately cultured with or without Iloprost. The re-expansion of blastocoel was checked 18 hours later. The analysis of outcome was the same as the analysis for the frozen zygotes study.

human frozen blastocysts = assay: Short term study with thawed frozen human blastocysts; assay type: cell-based
Method: as §3

rabbits = conditions: Iloprost given throughout the gestation period; cited from earlier work
monkeys = conditions: Iloprost given throughout the gestation period; cited from earlier work
rats = conditions: Iloprost given throughout the gestation period; cited from earlier work
[7] = 1 μM in HTF media, 81 embryos transferred

Q: With `CC#CCC(C)[C@H](O)/C=C/[C@@H]1[C@H]2C/C(=C/CCCC(=O)O)C[C@H]2C[C@H]1O` (stereo partly shown) [Iloprost] as the compound, how does the “effect on complete hatching” value (mouse embryos [1]; exposure 0-72 hours after harvest) read?
A: same rates of complete hatching as did 0-96 hours exposure

Q: What about the “effect on complete hatching” value (mouse embryos [1]; exposure 24-42 hours (eight-cell embryos to morulae)) of the same compound?
A: ensured enhanced hatching

Q: What about the “effect on complete hatching” value (mouse embryos [1]; exposure 24-72 hours after harvest) of the same compound?
A: same rates of complete hatching as did 0-96 hours exposure

Q: And the “effect on complete hatching” value (mouse embryos [1]; exposure 42-72 hours (morulae to early blastocysts))?
A: ensured enhanced hatching

Q: What about the “effect on complete hatching” value (mouse embryos [1]; exposure during the first 24 hours of culture (two-cell to eight-cell)) of the same compound?
A: did not enhance hatching

Q: And the “rate of complete hatching (mean±S.D.)” value (mouse embryos [1]; 1 μM, maximum augmentation, 96 hours, n=3, control 49±14%)?
A: 81±7%

Q: And the “concentration at which effects on complete hatching were statistically significant” value (mouse embryos [1]; 96 hour culture)?
A: ≥ 0.1 µM

Q: What about the EC50 (mouse embryos [1]; Mus musculus, 96 h, two-cell mouse embryos cultured 96 hours with 1 nM to 10 μM, Hill slope set at 1.0, read-out: ED50 for enhancement of complete hatching) of the same compound?
A: 6.7 nM

Q: And the 3H-Iloprost specifically bound [2]?
A: approximately 3.04 fmol

Q: What about the “Degenerated (number of embryos at transfer)” value (mouse embryos [3]; [7]) of the same compound?
A: 0

Q: And the “Hatching Blastocyst (number of embryos at transfer)” value (mouse embryos [3]; [7])?
A: 2

Q: What about the “Morula (number of embryos at transfer)” value (mouse embryos [3]; [7]) of the same compound?
A: 49

Q: And the “Early Blastocyst (number of embryos at transfer)” value (mouse embryos [3]; 1 μM, 81 embryos transferred, blastocoele cavity <49% of the embryo)?
A: 8

Q: And the “Late Blastocyst (number of embryos at transfer)” value (mouse embryos [3]; 1 μM, 81 embryos transferred, blastocoele cavity ≧50% of the embryo)?
A: 22

Q: And the “embryos at the morula stage at the time of transfer” value (mouse embryos [3]; experimental and control embryos)?
A: approximately 70%

Q: And the “Number of gestation sacs” value (mouse embryos [4]; 72 hours after transfer of 81 embryos cultured with 1 μM, control 35)?
A: 62

Q: And the “implantation rate (gestation sacs per embryo transferred)” value (mouse embryos [4]; 72 hours after transfer, control 42%)?
A: 76%

Q: And the “Pup weight (mean ± S.D.)” value (mouse embryos [5]; 14 days after transfer (16.5 days of pregnancy), control 0.788 ± 0.151)?
A: 0.772 ± 0.124 gm

Q: What about the “Total number of live pups” value (mouse embryos [5]; 14 days after transfer of 415 embryos to 31 carriers, control 115) of the same compound?
A: 149

Q: What about the “Placental weight (mean ± S.D.)” value (mouse embryos [5]; 14 days after transfer, control 0.166 ± 0.037) of the same compound?
A: 0.166 ± 0.003 gm

Q: What about the “live birth rate (live pups per embryo transferred)” value (mouse embryos [5]; 14 days after transfer, control 28%) of the same compound?
A: 36%

Q: What about the “implantation rate (sacs with or without live pups per embryo transferred)” value (mouse embryos [5]; 14 days after transfer, control 46%) of the same compound?
A: 59%

Q: And the “gross anomalies of pups” value (mouse embryos [5]; embryos exposed during the pre-implantation period, live pups examined)?
A: no gross anomalies; also recorded: no digit reduction or other anomalies

Q: And the “blastocysts formed / embryos” value ([6]; 5 days culture, control 11/26)?
A: (18/26)

Q: What about the Blastocyst formation rate ([6]; 5 days culture, control 42%) of the same compound?
A: 69%

Q: And the “ICM (coding A = 3, B = 2, C = 1)” value ([6]; inner cell mass, control 0.50)?
A: 1.42

Q: And the “Size (score 1-6)” value ([6]; morula or degenerated = 0, control 1.42)?
A: 3.04

Q: And the “TRO (coding A = 3, B = 2, C = 1)” value ([6]; trophectoderm, control 0.46)?
A: 1.31

Q: And the “TRO (coding A = 3, B = 2, C = 1)” value (human frozen blastocysts; Frozen blastocyst, 18 hours, control 0.68)?
A: 0.78

Q: And the “ICM (coding A = 3, B = 2, C = 1)” value (human frozen blastocysts; Frozen blastocyst, 18 hours, control 0.72)?
A: 0.86

Q: What about the “Size (score 1-6)” value (human frozen blastocysts; Frozen blastocyst, 18 hours, control 1.45) of the same compound?
A: 1.47

Q: What about the “blastocysts / thawed blastocysts” value (human frozen blastocysts; Frozen blastocyst, 18 hours, control 11/22) of the same compound?
A: (11/23)

Q: And the Blastocyst formate rate (human frozen blastocysts; re-expansion of blastocoel checked 18 hours after thaw, control 50%)?
A: 48%

Q: And the “embryonic and fetal development” value (rabbits)?
A: not affected

Q: And the “embryonic and fetal development” value (monkeys)?
A: not affected

Q: And the “embryonic and fetal development” value (rats)?
A: digit reduction

Q: With `CCCCC[C@H](O)/C=C/[C@H]1[C@H](O)CC(=O)[C@@H]1C/C=C\CCCC(=O)O` [PGE2, prostaglandin E2] as the compound, how does the “effect on complete hatching of cultured mouse embryos” value (mouse embryos [1]; preliminary data) read?
A: enhanced the complete hatching
